This note sets out measurements from patent US12030878B2 (BRISTOL-MYERS SQUIBB COMPANY, priority 2017, dated 2024).

Common to all, as to assay type: cell-based
In one test the target is T1, human TLR7 (Homo sapiens, UniProt Q9NYK1).
T1 construct: host or cells: HEK-Blue cells
T1 sequence (Q9NYK1 27-1049): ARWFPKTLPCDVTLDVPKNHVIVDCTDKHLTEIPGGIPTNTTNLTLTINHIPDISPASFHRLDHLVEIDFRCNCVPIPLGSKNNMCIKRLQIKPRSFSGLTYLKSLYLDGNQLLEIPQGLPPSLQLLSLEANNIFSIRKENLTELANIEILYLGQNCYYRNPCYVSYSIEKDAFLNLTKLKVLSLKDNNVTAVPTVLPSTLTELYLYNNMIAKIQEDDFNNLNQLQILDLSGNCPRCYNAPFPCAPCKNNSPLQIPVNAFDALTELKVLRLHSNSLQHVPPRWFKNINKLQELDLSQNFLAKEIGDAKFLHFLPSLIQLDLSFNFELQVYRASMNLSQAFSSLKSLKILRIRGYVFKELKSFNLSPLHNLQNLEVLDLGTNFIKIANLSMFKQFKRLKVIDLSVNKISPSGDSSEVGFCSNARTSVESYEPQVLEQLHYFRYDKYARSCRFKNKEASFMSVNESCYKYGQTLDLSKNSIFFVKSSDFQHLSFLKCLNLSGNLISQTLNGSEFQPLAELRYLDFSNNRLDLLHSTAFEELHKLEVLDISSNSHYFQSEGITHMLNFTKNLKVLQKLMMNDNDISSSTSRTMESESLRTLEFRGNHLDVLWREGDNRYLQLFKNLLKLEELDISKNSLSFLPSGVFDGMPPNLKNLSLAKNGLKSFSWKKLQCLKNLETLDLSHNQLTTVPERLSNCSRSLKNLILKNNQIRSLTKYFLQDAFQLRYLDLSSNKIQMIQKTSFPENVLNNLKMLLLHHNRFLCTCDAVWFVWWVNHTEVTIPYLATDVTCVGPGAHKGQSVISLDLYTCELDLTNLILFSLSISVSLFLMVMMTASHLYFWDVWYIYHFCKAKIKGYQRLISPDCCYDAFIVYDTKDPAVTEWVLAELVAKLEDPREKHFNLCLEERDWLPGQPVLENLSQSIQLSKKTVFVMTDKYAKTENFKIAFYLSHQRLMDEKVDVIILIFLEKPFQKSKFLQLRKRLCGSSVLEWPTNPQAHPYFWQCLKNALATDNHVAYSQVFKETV
The test is described as follows: TLR7 inhibition reporter assay (HEK-Blue SEAP). Particulars: HEK-Blue cells overexpressing human TLR7, stimulated with gardiquimod 7.5 μM, 22 hour incubation. The method in brief: (§1)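 HEK-Blue cells with NF-κB/AP-1-driven SEAP reporter; compounds 0.05 nM-50 μM, 30 min pre-treatment at room temperature, then agonist: gardiquimod 7.5 μM (TLR7), R848 15.9 μM (TLR8) or ODN2006 5 nM (TLR9). SEAP read after 22 h at 37 °C; percent inhibition versus agonist-plus-DMSO and reference-inhibitor wells.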
Background: In a reporter assay the amount or activity of a reporter protein is the signal.

A further test concerns the target T2, human TLR8 (Homo sapiens, UniProt Q9NR97).
T2 construct: host or cells: HEK-Blue cells
T2 sequence (Q9NR97 27-1041): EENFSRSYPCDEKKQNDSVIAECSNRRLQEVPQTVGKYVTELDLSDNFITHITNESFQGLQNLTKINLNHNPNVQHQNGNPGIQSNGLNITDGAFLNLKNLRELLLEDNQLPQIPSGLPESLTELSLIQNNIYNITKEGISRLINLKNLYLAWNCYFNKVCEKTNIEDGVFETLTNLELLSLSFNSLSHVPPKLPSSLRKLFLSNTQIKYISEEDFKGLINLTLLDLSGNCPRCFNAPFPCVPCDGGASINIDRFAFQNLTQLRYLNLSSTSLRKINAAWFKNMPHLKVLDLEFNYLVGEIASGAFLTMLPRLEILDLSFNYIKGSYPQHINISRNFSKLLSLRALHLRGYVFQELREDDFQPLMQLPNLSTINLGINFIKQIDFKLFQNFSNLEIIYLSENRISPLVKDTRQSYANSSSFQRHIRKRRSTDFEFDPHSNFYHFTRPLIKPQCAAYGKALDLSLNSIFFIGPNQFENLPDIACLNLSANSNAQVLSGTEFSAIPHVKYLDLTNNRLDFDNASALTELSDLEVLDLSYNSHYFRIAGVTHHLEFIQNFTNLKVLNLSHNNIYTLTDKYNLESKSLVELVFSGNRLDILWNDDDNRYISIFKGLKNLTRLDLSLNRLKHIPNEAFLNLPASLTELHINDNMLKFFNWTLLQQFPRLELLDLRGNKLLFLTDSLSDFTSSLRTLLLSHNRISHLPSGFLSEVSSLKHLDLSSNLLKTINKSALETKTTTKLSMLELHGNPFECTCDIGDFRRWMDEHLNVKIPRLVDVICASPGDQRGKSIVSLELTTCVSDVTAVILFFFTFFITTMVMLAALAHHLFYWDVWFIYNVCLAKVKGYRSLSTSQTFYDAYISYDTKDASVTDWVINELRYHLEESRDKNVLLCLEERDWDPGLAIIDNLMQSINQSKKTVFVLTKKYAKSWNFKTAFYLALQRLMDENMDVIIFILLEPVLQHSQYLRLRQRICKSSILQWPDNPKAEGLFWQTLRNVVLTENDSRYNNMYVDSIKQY
Nature of the test: TLR8 inhibition reporter assay (HEK-Blue SEAP). Particulars: HEK-Blue cells overexpressing human TLR8, stimulated with R848 15.9 μM, 22 hour incubation. The method in brief:
as §1

A further test addresses T3, human TLR9 (Homo sapiens, UniProt Q9NR96).
T3 construct: host or cells: HEK-Blue cells
T3 sequence (Q9NR96 26-1032): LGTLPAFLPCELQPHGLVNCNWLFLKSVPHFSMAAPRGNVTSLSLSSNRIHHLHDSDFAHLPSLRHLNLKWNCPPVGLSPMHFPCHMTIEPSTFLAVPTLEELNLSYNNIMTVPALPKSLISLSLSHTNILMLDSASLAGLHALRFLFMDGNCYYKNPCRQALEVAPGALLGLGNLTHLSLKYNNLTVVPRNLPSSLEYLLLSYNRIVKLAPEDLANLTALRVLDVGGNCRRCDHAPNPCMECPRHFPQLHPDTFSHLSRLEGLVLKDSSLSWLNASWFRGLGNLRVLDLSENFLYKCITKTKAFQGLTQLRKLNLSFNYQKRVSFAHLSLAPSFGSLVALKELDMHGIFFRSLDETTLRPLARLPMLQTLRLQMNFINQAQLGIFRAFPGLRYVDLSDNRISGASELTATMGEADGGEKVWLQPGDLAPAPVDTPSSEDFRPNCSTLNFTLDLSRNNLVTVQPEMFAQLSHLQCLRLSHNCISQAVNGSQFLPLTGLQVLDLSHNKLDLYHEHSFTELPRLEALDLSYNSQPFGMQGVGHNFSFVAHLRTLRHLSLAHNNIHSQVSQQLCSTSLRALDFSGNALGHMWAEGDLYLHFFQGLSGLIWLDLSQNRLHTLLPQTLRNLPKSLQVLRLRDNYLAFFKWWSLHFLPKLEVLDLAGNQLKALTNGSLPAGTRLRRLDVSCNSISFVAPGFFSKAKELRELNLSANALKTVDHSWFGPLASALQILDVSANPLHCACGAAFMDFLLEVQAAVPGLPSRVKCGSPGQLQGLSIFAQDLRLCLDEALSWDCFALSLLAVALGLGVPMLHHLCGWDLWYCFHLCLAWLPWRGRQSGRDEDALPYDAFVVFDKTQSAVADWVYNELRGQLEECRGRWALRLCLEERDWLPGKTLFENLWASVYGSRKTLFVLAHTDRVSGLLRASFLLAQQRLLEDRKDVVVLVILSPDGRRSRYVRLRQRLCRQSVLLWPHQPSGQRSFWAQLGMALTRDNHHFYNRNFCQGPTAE
Nature of the test: TLR9 inhibition reporter assay (HEK-Blue SEAP). The conditions noted are these: HEK-Blue cells overexpressing human TLR9, stimulated with ODN2006 5 nM, 22 hour incubation. In outline:
as §1

The structures appear in SMILES notation.

In the case of `COc1ccc(-c2[nH]c3ccc(OCC(=O)NCCC(C)(C)O)cc3c2C(C)C)cc1OC` [Example 153, 2-((2-(3,4-dimethoxyphenyl)-3-isopropyl-1H-indol-5-yl)oxy)-N-(3-hydroxy-3-methylbutyl)acetamide], the results for the IC50 at human TLR7, against human TLR8 and against human TLR9 were 0.461 µM, 2.53 µM and over 50 µM, respectively.

As to `COc1ccc(-c2[nH]c3ccc(OCC(=O)NC[C@@H](F)C(C)(C)O)cc3c2C(C)C)cc1OC` [Example 154, (R)-2-((2-(3,4-dimethoxyphenyl)-3-isopropyl-1H-indol-5-yl)oxy)-N-(2-fluoro-3-hydroxy-3-methylbutyl) acetamide], the IC50 (in general, the concentration needed to halve the response being measured) on human TLR7 is 0.899 µM; on human TLR8, 1.89 µM; against human TLR9, over 50 µM.

Consider `Cc1cc(-c2[nH]c3ccc(OCC(=O)NCCC(C)(C)O)cc3c2C(C)C)ccn1` [Example 155, N-(3-hydroxy-3-methylbutyl)-2-((3-isopropyl-2-(2-methylpyridin-4-yl)-1H-indol-5-yl)oxy)acetamide], for which the half-maximal inhibitory concentration (IC50) is 0.778 µM on human TLR7, 0.731 µM against human TLR8 and over 50 µM against human TLR9.

On to `Cc1cc(-c2[nH]c3ccc(OCC4CCNCC4)cc3c2C(C)C)ccn1` [Example 156], for which the values for the 50% inhibitory concentration (IC50) at human TLR7, against human TLR8 and on human TLR9 were 0.0129 µM, 0.0032 µM and 0.721 µM, respectively.

As to `Cc1cc(-c2[nH]c3ccc(O[C@@H]4CCNC4)cc3c2C(C)C)ccn1` [Example 157, (R)-3-isopropyl-2-(2-methylpyridin-4-yl)-5-(pyrrolidin-3-yloxy)-1H-indole], the 50% inhibitory concentration (IC50) against human TLR7 worked out at 0.0087 µM; against human TLR8, 0.007 µM; at human TLR9, 1.91 µM.

For `COc1ccc(-c2[nH]c3ccc(OCCC4CCNCC4)cc3c2C(C)C)cc1OC` [Example 158, 2-(3,4-dimethoxyphenyl)-3-isopropyl-5-(2-(piperidin-4-yl)ethoxy)-1H-indole], the IC50 amounted to 0.049 µM against human TLR7, 0.0276 µM against human TLR8 and 2.99 µM against human TLR9.

Consider `COc1ccc(-c2[nH]c3ccc(OCC4CCNCC4)cc3c2C(C)C)cc1OC` [Example 159, 2-(3,4-dimethoxyphenyl)-3-isopropyl-5-(piperidin-4-ylmethoxy)-1H-indole], for which the IC50 at human TLR7 is 0.0361 µM; against human TLR8 it was 0.0256 µM; against human TLR9 it was 2.32 µM.

Regarding `COc1ccc(-c2[nH]c3ccc(OCC4CCN(Cc5ccccc5)CC4)cc3c2C(C)C)cc1OC` [Example 160, 5-((1-benzylpiperidin-4-yl)methoxy)-2-(3,4-dimethoxyphenyl)-3-isopropyl-1H-indole], the concentration for half-maximal inhibition (IC50) worked out at 0.275 µM at human TLR7, 0.128 µM on human TLR8 and 7.57 µM on human TLR9.

Turning to `CCc1c(-c2ccnc(C)c2)[nH]c2ccc(OCC3CCNCC3)cc12` [Example 161, 3-ethyl-2-(2-methylpyridin-4-yl)-5-(piperidin-4-ylmethoxy)-1H-indole], the concentration for half-maximal inhibition (IC50) against human TLR7 amounted to 0.022 µM; against human TLR8, 0.0042 µM; against human TLR9, 0.218 µM.

As for `CCc1c(-c2ccc(OC)c(OC)c2)[nH]c2ccc(OCC3CCNCC3)cc12` [Example 162, 2-(3,4-dimethoxyphenyl)-3-ethyl-5-(piperidin-4-ylmethoxy)-1H-indole], the IC50 amounted to 0.105 µM against human TLR7, 0.0228 µM against human TLR8 and 2.53 µM on human TLR9.

On to `CCc1c(-c2ccnc(C)c2)[nH]c2ccc(OC3CCNCC3)cc12` [Example 163, 3-ethyl-2-(2-methylpyridin-4-yl)-5-(piperidin-4-yloxy)-1H-indole], for which the IC50 against human TLR7 is 0.146 µM; at human TLR8, 0.009 µM; on human TLR9, 1.81 µM.

`Cc1cc(-c2[nH]c3ccc(OC4CCNCC4)cc3c2C(C)C)ccn1` [Example 164, 3-isopropyl-2-(2-methylpyridin-4-yl)-5-(piperidin-4-yloxy)-1H-indole]: the IC50 was 0.0112 µM on human TLR7, 0.0011 µM against human TLR8 and 1.08 µM against human TLR9.

Turning to `Cc1cc(-c2[nH]c3ccc(OCc4ccccc4)cc3c2C(C)C)ccn1` [Example 165, 5-(benzyloxy)-3-isopropyl-2-(2-methylpyridin-4-yl)-1H-indole], the figures for the IC50 against human TLR7, at human TLR8 and against human TLR9 were 5.92 µM, 1.29 µM and over 50 µM, respectively.

On to `Cc1cc(-c2[nH]c3ccc(OCCN4CCCC4)cc3c2C(C)C)ccn1` [Example 166, 3-isopropyl-2-(2-methylpyridin-4-yl)-5-(2-(pyrrolidin-1-yl)ethoxy)-1H-indole], for which the IC50 at human TLR7 was 0.0651 µM; on human TLR8 it was 0.0031 µM; against human TLR9, 0.987 µM.

As to `Cc1cc(-c2[nH]c3ccc(OCCN(C)C)cc3c2C(C)C)ccn1` [Example 167, 2-((3-isopropyl-2-(2-methylpyridin-4-yl)-1H-indol-5-yl)oxy)-N,N-dimethylethan-1-amine], the results for the 50% inhibitory concentration (IC50) against human TLR7, against human TLR8 and against human TLR9 were 0.069 µM, 0.0031 µM and 1.92 µM, respectively.
